Test results: article PMC10803553 (Frontiers in Oncology, 2024)
“Also recorded” adds a separate entry of the source.

Tests used:
[1] = tested on: wildtype and F1174S mutant EML4-ALK V3a and EML4-ALK V3b; assay: Dose-dependent pALK-Y1604 response to crizotinib or lorlatinib in NL20 cells, wildtype and F1174S mutant V3a/b (immunoblot, qualitative); format: cell-based, human; details: 0 nM to 1000 nM, 2 hours
EML4-ALK V1 mRNA = assay: RT-PCR for EML4-ALK V1 mRNA after ALK inhibition in DFCI032 cells; format: cell-based, human; details: 30 nM lorlatinib, 24 hours
Experimental: Reverse transcription was performed with the SuperScript IV First-Strand Synthesis System (Invitrogen, Carlsbad. CA) following the manufacturer’s protocol. PCR was performed with DreamTaq Hot Start Green PCR Master Mix (ThermoScientific, Waltham, MA). The PCR primers used for ALK were 5’-[…]-3’ and 5’-[…]-3’; and the primers for Actin were 5’-[…]-3’ and 5’-[…]-3’.
(§1) SK-N-AS cells were transfected with Lipofectamine 3000 (Invitrogen, Carlsbad. CA) following the manufacturer’s instruction. […] After 24-36 hours culture, cells were treated with serial dilutions of the indicated inhibitors for 2 hours.

EML4-ALK F1174S NSCLC = details: one NSCLC patient, after resistance to crizotinib; alectinib 6 months, ceritinib 3 months, brigatinib 1 month
EML4-ALK (F1174S) V3a = biological target: T1, EML4-ALK (F1174S) V3a (Homo sapiens, UniProt Q9HC35+Q9UM73, F1174S); details: NL20 cells, 0 nM to 1000 nM, pALK-Y1604 readout
T1 sequence (Q9HC35+Q9UM73 with tags, fused parts or gaps Q9UM73:F1174S): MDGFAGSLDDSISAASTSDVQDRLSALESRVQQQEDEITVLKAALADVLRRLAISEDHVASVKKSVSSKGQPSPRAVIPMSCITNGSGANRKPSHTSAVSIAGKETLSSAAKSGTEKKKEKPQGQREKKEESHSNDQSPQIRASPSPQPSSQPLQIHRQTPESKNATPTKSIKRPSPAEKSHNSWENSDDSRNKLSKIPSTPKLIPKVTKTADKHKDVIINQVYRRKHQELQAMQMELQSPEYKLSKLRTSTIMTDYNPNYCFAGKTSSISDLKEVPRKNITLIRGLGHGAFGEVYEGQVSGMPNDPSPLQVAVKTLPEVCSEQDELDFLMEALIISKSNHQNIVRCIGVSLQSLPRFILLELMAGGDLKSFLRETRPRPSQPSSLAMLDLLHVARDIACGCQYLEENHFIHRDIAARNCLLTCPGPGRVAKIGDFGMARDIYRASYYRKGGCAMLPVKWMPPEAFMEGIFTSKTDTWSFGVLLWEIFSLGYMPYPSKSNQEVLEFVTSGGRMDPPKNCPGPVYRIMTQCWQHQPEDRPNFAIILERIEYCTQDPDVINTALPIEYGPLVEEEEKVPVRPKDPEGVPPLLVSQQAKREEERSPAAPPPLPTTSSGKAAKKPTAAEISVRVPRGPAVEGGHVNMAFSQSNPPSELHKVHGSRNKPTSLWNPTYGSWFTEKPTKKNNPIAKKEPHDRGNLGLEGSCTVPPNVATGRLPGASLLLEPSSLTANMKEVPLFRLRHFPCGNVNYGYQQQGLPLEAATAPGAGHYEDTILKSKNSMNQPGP
Experimental: as §1
Cells were washed with ice-cold PBS prior to harvest in lysis buffer [25 mM of Tris-Cl, pH7.5, 150 mM of NaCl, 1% (v/v) Triton X-100, 1 mM of DTT, and protease inhibitor cocktail]. Cell lysates were clarified by centrifugation at 14,000 rpm for 15 minutes at 4°C. Samples were boiled in 1x SDS sample buffer and analyzed by immunoblotting. Enhanced chemiluminescence (ECL) and fluorescence blot images were taken with LI-COR Odyssey FC instrument and Image Studio 5.2 software (Lincoln, NE). […] The intensity of different protein bands was quantified with Image Studio Lite 5.2 software (Lincoln, NE). Ratios were shown either directly or normalized. […] GraphPad Prism 6.0 was used to calculate IC50 values by fitting data to a log (inhibitor concentration) vs. normalized response (variable slope) equation.
We therefore tested the sensitivity of these EML4-ALK mutants to ALK inhibitors. […] Dose-dependent ALK activity responses were followed with anti-pALK-Y1604 as readout.
Dose-dependent ALK activity responses were followed employing anti-pALK-Y1604 as readout.

Row | SMILES | inhibition of ALK-Y1604 phosphorylation (qualitative) [1] | ALK mRNA levels in response to treatment (EML4-ALK V1 mRNA) | clinical response to ALK TKI (EML4-ALK F1174S NSCLC) | sensitivity of EML4-ALK (F1174S) V3a to ALK inhibition relative to EML4-ALK V3a (qualitative) (EML4-ALK (F1174S) V3a)
1 | C[C@H]1Oc2cc(cnc2N)-c2c(nn(C)c2C#N)CN(C)C(=O)c2ccc(F)cc21 [lorlatinib] | superior inhibition effect | decreased ALK mRNA levels | – | –
2 | COc1cc(N2CCC(N3CCN(C)CC3)CC2)ccc1Nc1ncc(Cl)c(Nc2ccccc2P(C)(C)=O)n1 [brigatinib] | – | – | no detectable response | strongest effect; also recorded: more sensitive
3 | Cc1cc(Nc2ncc(Cl)c(Nc3ccccc3S(=O)(=O)C(C)C)n2)c(OC(C)C)cc1C1CCNCC1 [ceritinib] | – | – | no detectable response | more sensitive
